A short description of data set [1]: Pharmacokinetic (PK) study of cysteamine in plasma after oral dosing in rats, blood sampling from portal vein and heart (HPV protocol). Type of data set: in vivo, rat. As for the experimental part: Absorption and hepatic extraction information after oral administration and blood sampling from portal vein and heart (HPV protocol) were evaluated.
Blood samples were collected at intervals up to 24 h after dose administration (n=3 animals per each time point).
Sample Collection and Handling: After PO administration, blood samples were collected under deep Isofluorane anesthesia from portal vein and heart of each rat (3 rats per each time point). Blood was collected into potassium EDTA tubes at each of the following time points post-dose (actual times will be recorded): 0.25, 0.5, 1, 2, 4, 6, 8, 12 and 24 hours after dosing. All blood samples were thoroughly, but gently mixed following collection, placed on ice and centrifuged as soon as possible (2000 g for 5 min at 0° C.) to prepare plasma. Duplicate 50 μL aliquots of plasma samples were transferred in micronic tubes.
Plasma Sample Preparation: • 1. Calibration standards (CS) and quality control (QC) plasma samples were prepared by adding 5 μL WS to 45 μL of fresh plasma into micronic tubes using Tecan. • 2. Pseudo QC were prepared by adding 5 μL WSQC to 45 μL of water into micronic tubes using Tecan. • 3. CS, QC, pseudo QC and blank were diluted with 200 μL of KCl solution (1.15%). • 4. Plasma collection was performed by laboratory automation system (LAS). 50 μL whole plasma was transferred into micronic tubes containing 200 μL of KCl solution (1.15%). • 5. All samples were added […] with 20 μL of glutathione ethyl ester as internal standard (0.01 mg/mL in water) and 100 μL of Ellman's reagent (10 mM in water). • 6. […]
Plasma sample analysis: Samples were assayed for cysteamine using a method based on protein precipitation followed by HPLC/MS-MS analysis. Study samples were analyzed in discrete batches together with calibration standards (CS), used to construct calibration curves and blank samples (including also double blanks), used to assess specificity. […] The presence of prodrug and its products were monitored but not quantified in both portal and systemic plasma. […]

The conditions of data set [2]: cited from earlier work.
Data set [3] has as its system intracellular cystine (circulating white blood cells). As to conditions: taken regularly; measured in circulating white blood cells; cited from earlier work.

Where a name gives a salt, the structure may show the parent alone.

With `NCCS` [Cysteamine Hydrochloride, cysteamine hydrochloride], in data set [1] (male, CD, rat, in vivo, po), the “Fa % (fraction absorbed)” value worked out at 16.1%.

In the case of `Cl.NCCS.OCC(O)CO` [Glycerol Cysteamine Hydrochloride, glycerol cysteamine hydrochloride], the “Release of cysteamine hydrochloride from the glycerol prodrug moiety (conclusion)” value in data set [1] (rats PO, gastrointestinal (GI) tract) is on record as “fully separated from the glycerol prodrug moiety in the gastrointestinal (GI) tract”. In addition, in data set [1] (rats PO, versus cysteamine hydrochloride administration), the “Cysteamine levels in portal plasma after prodrug administration” value is “comparable to those observed after cysteamine hydrochloride administration”.

On to `NCCS` [cysteamine, 2-aminoethane-1-thiol], for which the “Duration of activity (short half-life)” value in data set [2] (in vivo) is 5 to 6 h. Moreover, the Estimated bioavailability in data set [2] (oral administration, extensive first pass metabolism) is reported as 10-30%. For the same molecule, the “Depletion of intracellular cystine” value in data set [3] is reported as “up to 90%”.

The values are drawn from US11357750B2, “Cysteamine prodrugs” (Children's Hospital Medical Center, priority 2017, dated 2022).
